Test results reported in BigSolDB 2.1.

O=C(O)c1cccnc1
solubility (mole fraction)
Conditions	in DMSO	in acetone	in ethanol	in ethyl acetate	in isopropanol	in methanol	in n-butanol	in n-propanol	in water
283.15 K	0.0437	0.00062	0.00202	0.00033	0.00177	0.00238	0.0014	0.00179	0.00165
293.15 K	0.0576	0.00104	0.00312	0.00054	0.00276	0.00382	0.00231	0.00285	0.00215
303.15 K	0.0722	0.00166	0.00468	0.00093	0.00418	0.00587	0.00351	0.00435	0.00279
313.15 K	0.0889	0.00262	0.00683	0.00149	0.00617	0.00889	0.00554	0.00641	0.00363
323.15 K	0.107	0.00408	0.00978	0.00246	0.00891	0.0129	0.00855	0.00923	0.00458
333.15 K	0.127	–	0.0136	0.00401	0.0125	–	0.0123	0.0131	0.00576
343.15 K	0.15	–	0.0188	0.00603	0.0172	–	0.0178	0.0186	0.00704
353.15 K	–	–	–	–	–	–	0.0253	–	0.00872
363.15 K	–	–	–	–	–	–	–	–	0.0107
